Patent US20240408093A1, “HETEROBIFUNCTIONAL COMPOUNDS AND THEIR USE IN TREATING DISEASE” (HALDA THERAPEUTICS OPCO, INC., priority 2022, published 2024)
Read-outs that look alike come from different tables or passages of the source.

Columns and labels:
GSPT1 [1] = experiment: Payload release assay (DC50 readout), GSPT1 degradation in the presence of recombinant target protein; type: cell-based; conditions: I-series compounds (GSPT1 readout inferred)
Method: Exemplary compounds were tested for ability to cause degradation of CCNK or GSPT1 in the presence of recombinant target protein.
HEK293 LgBiT/GSPT1 HiBiT CRISPR Knock-in cells (Promega) were cultured in DMEM (Gibco 11995), supplemented with 10% Heat-inactivated FBS (Gibco A38400-01) and 1% Penicillin/Streptomycin (Gibco 15140-122) and 200 Vg/ml Hygromycin B (Gibco 10-687-010) at 37° C. with 5% CO2 in a humidified tissue culture incubator. HEK293 LgBiT/CCNK HiBiT cells (in-house, described above) were cultured in DMEM (Gibco 11995), supplemented with 10% Heat-inactivated FBS (Gibco A38400-01) and 1% Penicillin/Streptomycin (Gibco 15140-122) 200 Vg/ml Hygromycin B (Gibco 10-687-010), and 1 Vg/ml Puromycin Dihydrochloride (Thermo A1113803) at 37° C. with 5% CO2 in a humidified tissue culture incubator. Cells were seeded (1000 cells/well for HEK293 LgBiT/GSPT1 HiBiT cells or 3000 cells/well for HEK293 LgBiT/CCNK HiBiT cells) 384-well, tissue culture-treated white plates (Perkin Elmer 6007680) in 10 μL media lacking selection for 18-24 hours. Plates were spun at 300 g for 30 seconds and stored in the incubator overnight. After 24 hours, a 5 μL aliquot of recombinant target protein (final concentration of either 5 μM KRAS amino acids 1-169, C51S, C80L, C118S, G12C or 3 μM EGFR amino acids 696-1022 or 3 μM EGFR amino acids 696-1022, T790M, L858R) was added to wells, followed immediately by a 5 μL aliquot of 4× compound-containing medium supplemented with Endurazine Substrate (Promega N2570) was added in each well, at a final top concentration of 10 μM test compound and 0.5× Endurazine, with 4-fold dilutions, using DMSO alone as a negative control. Plates were then spun at 300×g for 3 minutes again and cultured at 37° C. with 5% CO2. After 6 hours the plate was read on Envision MultiMode Plate Reader 2105 (Perkin Elmer) to measure luminescence signal. Data was normalized to DMSO treated cell wells. A four-parameter non-linear regression curve fit was applied to dose-response data in Prism to determine the half maximal growth inhibitory concentration (GI50) of each compound.

GSPT1 [2] = biological target: T1, GSPT1 (Homo sapiens, UniProt P15170+Q96SW2); experiment: GSPT1 HiBiT degradation assay; type: cell-based; conditions: HEK293 LgBiT GSPT1 HiBiT cells, 6 hours
T1 construct: host or cells: HEK293 LgBiT / GSPT1 HiBiT CRISPR knock-in
In short: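 HEK293 CRISPR knock-in cells expressing LgBiT and GSPT1-HiBiT were seeded at 1000 cells/well and, after 18-24 h, treated with titrated compound plus endurazine (0.5× final) at 37 °C. Luminescence read after 6 h; loss of signal reflects GSPT1 degradation, giving DC50.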

[3] = biological target: T2, EGFR T790M, L858R (amino acids 669-1011) (Homo sapiens, UniProt P00533, L858R/T790M); experiment: KdELECT binding assay, EGFR T790M, L858R
T2 construct: purchased Eurofins Discovery (KdELECT); host or cells: mammalian cells (HEK-293)
Method: Exemplary compounds were tested for ability to bind to EGFR WT (amino acids 669-1011, Accession Number NP_005219.2) or EGFR T790M, L858R (amino acids 669-1011 Accession Number NP_005219.2) expressed from bacteria or mammalian cells, respectively. Compounds were tested using the KdELECT assay at Eurofins Discovery.
Kinase-tagged T7 phage strains were prepared in an E. coli host derived from the BL21 strain. E. coli were grown to log-phase and infected with T7 phage and incubated with shaking at 32° C. until lysis. The lysates were centrifuged and filtered to remove cell debris. The remaining kinases were produced in HEK-293 cells and subsequently tagged with DNA for qPCR detection. Streptavidin-coated magnetic beads were treated with biotinylated small molecule ligands for 30 minutes at room temperature to generate affinity resins for kinase assays. The liganded beads were blocked with excess biotin and washed with blocking buffer (SeaBlock (Pierce), 1% BSA, 0.05% Tween 20, 1 mM DTT) to remove unbound ligand and to reduce non-specific binding. Binding reactions were assembled by combining kinases, liganded affinity beads, and test compounds in 1x binding buffer (20% SeaBlock, 0.17× PBS, 0.05% Tween 20, 6 mM DTT). Test compounds were prepared as 111× stocks in 100% DMSO. Kd values were determined using an 11-point 3-fold compound dilution series with three DMSO control points. All compounds for Kd measurements are distributed by acoustic transfer (non-contact dispensing) in 100% DMSO. The compounds were then diluted directly into the assays such that the final concentration of DMSO was 0.9%. All reactions performed in polypropylene 384-well plate. Each was a final volume of 0.02 mL. The assay plates were incubated at room temperature with shaking for 1 hour and the affinity beads were washed with wash buffer (1× PBS, 0.05% Tween 20). The beads were then re-suspended in elution buffer (1× PBS, 0.05% Tween 20, 0.5 μM nonbiotinylated affinity ligand) and incubated at room temperature with shaking for 30 minutes. The kinase concentration in the eluates was measured by qPCR.

[4] = 0 μM recombinant KRAS G12C, read-out: DC50 at 0 μM KRAS G12C
[5] = 5 μM recombinant KRAS G12C, read-out: DC50 at 5 μM KRAS G12C

T2 sequence (P00533 669-1011 T790M/L858R): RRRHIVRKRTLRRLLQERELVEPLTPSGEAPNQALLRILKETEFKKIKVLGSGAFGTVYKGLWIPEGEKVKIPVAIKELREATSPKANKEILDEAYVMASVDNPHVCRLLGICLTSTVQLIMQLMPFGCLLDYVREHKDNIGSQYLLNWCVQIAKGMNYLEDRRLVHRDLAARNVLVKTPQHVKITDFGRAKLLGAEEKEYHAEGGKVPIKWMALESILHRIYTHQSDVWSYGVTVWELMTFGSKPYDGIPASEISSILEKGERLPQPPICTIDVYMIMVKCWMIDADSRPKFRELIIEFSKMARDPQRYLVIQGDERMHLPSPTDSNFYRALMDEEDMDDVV
T1 sequence (P15170 whole entry): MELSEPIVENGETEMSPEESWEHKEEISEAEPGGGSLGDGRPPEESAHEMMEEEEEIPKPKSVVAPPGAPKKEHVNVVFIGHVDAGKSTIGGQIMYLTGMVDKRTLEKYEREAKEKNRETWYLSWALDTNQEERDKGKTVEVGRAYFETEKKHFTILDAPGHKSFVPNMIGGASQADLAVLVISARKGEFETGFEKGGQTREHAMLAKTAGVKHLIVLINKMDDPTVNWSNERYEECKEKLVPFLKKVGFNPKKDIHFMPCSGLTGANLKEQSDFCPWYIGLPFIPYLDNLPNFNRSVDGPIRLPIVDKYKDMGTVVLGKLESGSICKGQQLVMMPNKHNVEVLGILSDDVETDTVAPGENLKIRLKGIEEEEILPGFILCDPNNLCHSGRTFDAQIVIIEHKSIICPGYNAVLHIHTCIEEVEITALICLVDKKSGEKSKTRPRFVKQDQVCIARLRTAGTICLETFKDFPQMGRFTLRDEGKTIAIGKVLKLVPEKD
T1 sequence (Q96SW2 whole entry): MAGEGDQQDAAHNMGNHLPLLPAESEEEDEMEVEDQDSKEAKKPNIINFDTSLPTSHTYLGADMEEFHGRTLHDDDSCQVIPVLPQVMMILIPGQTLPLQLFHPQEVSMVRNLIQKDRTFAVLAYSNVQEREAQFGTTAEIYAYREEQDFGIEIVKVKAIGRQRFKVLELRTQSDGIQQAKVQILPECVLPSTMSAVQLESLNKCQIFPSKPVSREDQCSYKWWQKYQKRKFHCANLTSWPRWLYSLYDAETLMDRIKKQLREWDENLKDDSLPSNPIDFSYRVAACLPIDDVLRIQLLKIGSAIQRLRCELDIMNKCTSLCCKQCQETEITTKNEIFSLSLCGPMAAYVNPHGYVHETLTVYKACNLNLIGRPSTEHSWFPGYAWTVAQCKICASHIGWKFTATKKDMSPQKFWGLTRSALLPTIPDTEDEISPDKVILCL
T1 sequence (Q16531 whole entry partner): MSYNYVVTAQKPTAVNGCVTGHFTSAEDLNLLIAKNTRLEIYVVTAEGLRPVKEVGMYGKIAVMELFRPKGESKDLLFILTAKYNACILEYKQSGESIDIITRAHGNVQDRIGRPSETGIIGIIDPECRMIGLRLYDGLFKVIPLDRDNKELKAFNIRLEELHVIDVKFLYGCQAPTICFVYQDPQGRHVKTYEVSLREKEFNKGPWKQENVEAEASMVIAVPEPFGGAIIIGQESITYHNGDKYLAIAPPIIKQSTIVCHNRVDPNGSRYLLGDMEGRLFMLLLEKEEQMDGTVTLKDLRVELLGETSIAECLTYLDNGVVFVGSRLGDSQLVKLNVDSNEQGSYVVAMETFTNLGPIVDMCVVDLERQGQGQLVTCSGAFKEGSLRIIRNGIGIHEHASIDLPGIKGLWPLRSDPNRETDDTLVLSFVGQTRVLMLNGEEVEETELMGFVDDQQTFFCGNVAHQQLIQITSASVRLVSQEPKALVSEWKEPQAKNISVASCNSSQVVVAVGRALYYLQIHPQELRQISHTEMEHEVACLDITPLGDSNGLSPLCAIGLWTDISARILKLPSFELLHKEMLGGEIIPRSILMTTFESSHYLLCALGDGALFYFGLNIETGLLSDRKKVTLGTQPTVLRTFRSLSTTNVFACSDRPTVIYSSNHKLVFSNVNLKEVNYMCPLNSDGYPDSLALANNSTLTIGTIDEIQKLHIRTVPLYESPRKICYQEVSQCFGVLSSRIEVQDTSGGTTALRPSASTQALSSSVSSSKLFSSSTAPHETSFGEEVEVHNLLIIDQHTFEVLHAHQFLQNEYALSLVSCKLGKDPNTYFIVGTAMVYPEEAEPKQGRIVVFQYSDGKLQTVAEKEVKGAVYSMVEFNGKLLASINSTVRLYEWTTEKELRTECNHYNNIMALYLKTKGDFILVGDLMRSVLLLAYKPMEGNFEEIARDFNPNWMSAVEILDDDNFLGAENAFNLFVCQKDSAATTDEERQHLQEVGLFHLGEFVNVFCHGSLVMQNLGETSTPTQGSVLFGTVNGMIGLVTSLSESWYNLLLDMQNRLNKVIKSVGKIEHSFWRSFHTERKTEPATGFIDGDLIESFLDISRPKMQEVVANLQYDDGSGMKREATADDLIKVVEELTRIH

| SMILES | DC50 (GSPT1 [1]; [4]) [nM] | DC50 (GSPT1 [1]; [5]) [nM] | DC50 (GSPT1 [2]) [nM] | Kd [3] [nM] |
| --- | --- | --- | --- | --- |
| C=C(COc1c(Cl)cccc1NC(=O)NCc1ccc2c(c1)CN(C1CCC(=O)NC1=O)C2=O)C(=O)N1CCN(c2nc(OC[C@@H]3CCCN3C)nc3c2CCN(c2cccc4cccc(Cl)c24)C3)C[C@@H]1CC#N (some centres unmarked) [Compound I-86] | < 250 | < 250 | < 50 | – |
| C=C(COc1cc(C(F)(F)F)c(Cl)cc1NC(=O)NCc1ccc2c(c1)CN(C1CCC(=O)NC1=O)C2=O)C(=O)N1CCN(c2nc(OC[C@@H]3CCCN3C)nc3c2CCN(c2cccc4cccc(Cl)c24)C3)C[C@@H]1CC#N (some centres unmarked) [Compound I-88] | < 250 | < 250 | < 50 | – |
| C=C(COc1cc(NC(=O)NCc2ccc3c(c2)CN(C2CCC(=O)NC2=O)C3=O)ccc1OC)C(=O)N1CCN(c2nc(OC[C@@H]3CCCN3C)nc3c2CCN(c2cccc4cccc(Cl)c24)C3)C[C@@H]1CC#N (some centres unmarked) [Compound I-89] | 250 to 5000 | > 10000 | 500 to 2500 | – |
| C=C(COc1c(CNC(=O)Nc2ccc(C)c(Cl)c2)ccc2c1CN(C1CCC(=O)NC1=O)C2=O)C(=O)N1CCN(c2nc(OC[C@@H]3CCCN3C)nc3c2CCN(c2cccc4cccc(Cl)c24)C3)C[C@@H]1CC#N (some centres unmarked) [Compound I-90] | < 250 | < 250 | 50 to 500 | – |
| C=C(COc1cc(Cl)cc(NC(=O)NCc2ccc3c(c2F)CN(C2CCC(=O)NC2=O)C3=O)c1)C(=O)N1CCN(c2nc(OC[C@@H]3CCCN3C)nc3c2CCN(c2cccc4cccc(Cl)c24)C3)C[C@@H]1CC#N (some centres unmarked) [Compound I-116] | 250 to 5000 | < 250 | 500 to 2500 | – |
| C=C(COC(=O)n1c(CNc2nc(N3CCNCC3)nc3c(Br)cnn23)nc2cc(C)ccc21)C(=O)N1C[C@H](COc2nc(Nc3cnn(C)c3)nc3[nH]cc(Cl)c23)[C@@H](OC)C1 [Compound V-4] | – | – | – | > 2500 |
| C=C(COc1cc(-c2ccccn2)ccc1CNc1nc(N[C@H](CC)CO)nc2c1ncn2C(C)C)C(=O)N[C@@H]1CN(c2nc(Nc3cn(C)nc3OC)c3ncn(C)c3n2)C[C@H]1F [II-183] | – | – | – | 50 to 500 |
| C=C(COC(=O)N1CCN(c2nc(NCc3nc4cc(C)ccc4[nH]3)n3ncc(Br)c3n2)CC1)C(=O)N1C[C@H](COc2nc(Nc3cnn(C)c3)nc3[nH]cc(Cl)c23)[C@@H](OC)C1 [II-185] | – | – | – | > 2500 |
| C=C(CN1CCN(c2nc(NCc3nc4cc(C)ccc4[nH]3)n3ncc(Br)c3n2)CC1)C(=O)Nc1cc(Nc2nccc(-c3cn(C)c4ccccc34)n2)c(OC)cc1N(C)CCN(C)C [II-188] | – | – | – | < 50 |
| C=C(CN1CCN(c2nc(NCc3nc4cc(C)ccc4[nH]3)n3ncc(Br)c3n2)CC1)C(=O)Nc1cccc(-c2cccc3cnc(Nc4ccc(N5CCN(CCO)CC5)c(F)c4F)nc23)c1 [II-191] | – | – | – | 500 to 2500 |
